The source of these data is publication PMC4094517, “Structural Analysis and Mutant Growth Properties Reveal Distinctive Enzymatic and Cellular Roles for the Three Major L-Alanine Transaminases of Escherichia coli” (PLoS ONE, 2014).

In one data set the target is T1, AlaA (Escherichia coli, UniProt P0A959).
T1 construct: full length, 405 residues, N-terminal His6-TEV tag kept (pETM11, pAlaA), expressed in E. coli BL21(DE3), homodimer about 90 kDa
The data set can be described thus: X-ray crystal structure, […] Å. The format is binding. As to conditions: covalent (internal aldimine, Schiff base with Lys240); acetate from crystallisation solution also in active site; crystals in 0.25 M lithium acetate, 22% PEG 3350, 20 °C.

Data set [1] deals with the molecule itself. The data set can be described thus: SEC; Superdex 200 10/300 GL after HisTrap, 4°C; elution mass estimated.

For `Cc1ncc(COP(=O)(O)O)c(C=O)c1O` [PLP], the “X-ray crystal structure, 2.11 Å” value on AlaA is “An intact Schiff base linkage between Lys240 and PLP”.

B1: His-tagged AlaA (alanine aminotransferase AlaA of Escherichia coli) (enzyme, UniProt P0A959 1-405, looked up)
chain: MSPIEKSSKLENVCYDIRGPVLKEAKRLEEEGNKVLKLNIGNPAPFGFDAPDEILVDVIRNLPTAQGYCDSKGLYSARKAIMQHYQARGMRDVTVEDIYIGNGVSELIVQAMQALLNSGDEMLVPAPDYPLWTAAVSLSSGKAVHYLCDESSDWFPDLDDIRAKITPRTRGIVIINPNNPTGAVYSKELLMEIVEIARQHNLIIFADEIYDKILYDDAEHHSIAPLAPDLLTITFNGLSKTYRVAGFRQGWMVLNGPKKHAKGYIEGLEMLASMRLCANVPAQHAIQTALGGYQSISEFITPGGRLYEQRNRAWELINDIPGVSCVKPRGALYMFPKIDAKRFNIHDDQKMVLDFLLQEKVLLVQGTAFNWPWPDHFRIVTLPRVDDIELSLSKFARFLSGYHQL
modifications: Lys240 in Schiff base linkage with pyridoxal 5'-phosphate (LLP, Lys-PLP)
notes: AlaA, alanine aminotransferase (glutamic-pyruvic transaminase), Escherichia coli, 405-amino-acid monomer; alaA amplified from E. coli XL1-Blue genomic DNA into pETM11; pETM11 adds an N-terminal hexahistidine tag and a TEV protease cleavage site; Modelled residues 1-404 (chain A) and 2-405 (chain B); also called full-length AlaA; His6-AcTev-AlaA; source: E. coli BL21(DE3), purified (HisTrap, …)
As to B1, in data set [1], the “stoichiometry N” value is 2.
